In US20150359884A1, “MULTI-PHOTON ISOMERISATION OF COMBRETASTATINS AND THEIR USE IN THERAPY” (priority 2011, published 2015):

Assays:
[1] = Two-photon absorption cross section using reference fluorophore 9-chloroanthracene; format: physicochemical; conditions: at 620 nm, DCM
Excerpt: (§1) Cell images were overlaid using Adobe Photoshop CS3.
Published cross sections for two photon absorption (σ2, the probability of an absorption process or photon interaction) typically show large variations depending on the method of measurement, using either the Z-scan method or a reference fluorophore, and the power range and pulse duration of the laser used for excitation. We have attempted to determine values of σ2 for E-CA4 and E-ACA4 using a reference fluorophore. 9-Chloroanthracene (9CIA) was selected as a standard fluorophore with an appropriate fluorescence spectrum and for which 2PE cross-sections are available. The values of σ2 at 620 nm for E-CA4 and E-CA4F in DCM were determined to be 2.1±0.5 and 2.75±0.6 GM units respectively. […] Values of σ2 at 620 nm for E-ACA and E-DMAC were both 5.7±1.2. These larger values may be consistent with some charge transfer character of the excitation of these compounds.

[2] = Fluorescence lifetimes in solvents, two-photon excitation with TCSPC; format: physicochemical
Procedure: Fluorescence lifetimes were determined using 2PE at 630 nm with the microscope TCSPC setup (overall time response of 25 ps fwhm) and produced the results shown in Table 1. […] Characterisation of the spectroscopic properties of these latter two compounds remains to be investigated further. […] In the very viscous environment provided by glycerol the lifetime increases further to 1180 ps. In the range of alkanols studied the lifetime is closely correlated with solvent viscosity as shown in the inset to FIG. 3. […] However it is clear that the measured lifetime has the potential to report on cellular environments in FLIM studies. For E-CA4F similar trends are observed, but the overall differences in both lifetimes and quantum yields over the range of solvents are rather less than for E-CA4. The fluorescence lifetimes of E-CA4F are confined to a narrower range having values ranging from 440 ps in methanol through 740 ps in hexane to 1070 ps in glycerol. The more pronounced solvent dependence for E-CA4 no doubt reflects the more polar nature of the molecule compared with E-CA4F. The relative polarities may be judged from the partition coefficients (P) calculated according to the method of Brown et al..

[3] = Fluorescence quantum yields in solvents, UV one-photon excitation; format: physicochemical; conditions: 20° C., 290-300 nm excitation
Procedure: Absorption spectra were measured in either a Perkin Elmer Lambda 25 or 950 spectrophotometer. Fluorescence measurements were made with either a Spex Fluoromax or Varian Cary Eclipse spectrofluorimeter using the spectral correction curves supplied by the manufacturers. Fluorescence quantum yields with UV (one-photon) excitation were determined using either 2-aminopyridine (Φref 0.6 [7]) or 9-chloroanthracene (Φref 0.50 in dichloromethane, determined here relative to 9,10-diphenylanthracene in cyclohexane (Φref 0.97) and anthracene in ethanol (Φref 0.28 [8]) as standards. Fluorescence quantum yields were determined from the relative slopes of plots of integrated fluorescence intensity versus (1-10^−A) for samples having absorbance A≦0.1. The square of the refractive index (n^2) correction was applied when sample and reference compounds were in different solvents. Irradiation of the samples was minimized by the use of narrow excitation slits to reduce simultaneous photoisomerization.
The fluorescence quantum yields for E-CA4F were generally somewhat higher than for E-CA4.

[4] = test system: human umbilical vein endothelial cells (HUVECs); experiment: Fluorescence lifetime imaging (FLIM) of uptake and intracellular concentration in HUVECs; format: cell-based
Excerpt: as §1
Z-CA4 and analogues exert their anticancer activity by preventing the process of angiogenesis in which a growing tumour is supplied with new vasculature for the supply of nutrients via the bloodstream. We have therefore studied interactions between combretastatins and cultured HUVECs. […] Nevertheless it was possible to obtain images of cells after uptake upon E-combretastatin addition to the supporting medium at relatively low concentrations. […] In addition there are some punctate structures apparent in the images that appear to correlate with lipid droplets identified by Nile Red staining of the same cell. At 37° C. exact co-localization of the sequential images of combretastatin fluorescence and Nile Red labelled lipid droplets, obtained using the two different imaging systems attached to the microscope, is not possible because of the Brownian motion and the occasional rapid saltation of these structures that occur as a result of their transport upon the cellular microtubule network. The fluorescence lifetime distribution of intracellular E-CA4F observed in this cell simultaneously labelled with Nile Red peaks at ˜950 ps. […] This confirms that Nile Red and E-CA4F exist in the same space and are able to come close enough to allow FRET. The long lifetime of E-CA4F fluorescence in the HUVEC cell indicates a viscous environment for E-CA4F within the cell which is consistent with a lipidic location such as a membrane or lipid droplet. Since the fluorescence lifetimes and quantum yields of E-CA4F are directly related, it is possible to combine the FI and lifetime images to calculate the concentration distribution, using a series of standard solutions (DMSO was the chosen solvent with τ 810 ps). […] It is therefore clear that E-CA4F (and other compounds in FIG. 10) are taken up by their target endothelial cell and accumulated by up to 200 times the extracellular concentration of the compound. Similar images have been obtained that show corresponding uptake of E-CA4F within HUVECs from solutions containing as little as 1 μM E-CA4F.

[5] = test system: HeLa cells; experiment: Fluorescence lifetime imaging (FLIM) of uptake and intracellular concentration in HeLa cells
Procedure: Both HeLa and Chinese hamster ovary (CHO) cells were obtained from the European Collection of Cell Cultures. HeLa cells were cultured in MEM medium (Gibco) containing 10% foetal calf serum, penicillin (100 units/mL), streptomycin (100 μg/mL) and glutamine (2 mM). CHO cells were cultured in DMEM (Gibco) with the same additions as for the HeLa cells. For microscopy the adherent cell cultures were grown in 35 mm diameter glass-bottom culture dishes with optical quality glass (MatTek Corporation) and incubated at 37° C. in a humidified atmosphere containing 5% CO2. Human umbilical vein endothelial cells (HUVECs) were obtained from TCS Cellworks. HUVECs were sub-cultured in basal medium (TCS Cellworks) supplemented with antibiotic supplement/amphotericin-B, following the detailed guidelines provided by TCS Cellworks.
The fluorescence lifetime imaging system with multiphoton excitation employed lasers for multiphoton excitation consisting of a Ti:Sapphire laser, tuneable between 700 and 1000 nm and providing ca 180 fs pulses at 76 MHz, and an optical parametric oscillator (OPO) pumped by a second Ti:Sapphire laser source. Using the doubled idler output of the OPO, useful energies (>200 mW) could be obtained between 550 and 640 nm. Samples were excited on the stage of Nikon TE2000U inverted microscope using a water immersion ×60 objective of NA 1.2. Using the various microscope ports it was possible to record the fluorescence in a number of ways. The fluorescence signal at one port was relayed to a spectrometer (Acton 275) and CCD setup (Andor iDUS) so that emission spectra and intensities could be recorded. Alternatively the fluorescence signal could be routed via a second port to a time-correlated single photon counting (TCSPC) system (Becker and Hickl SPC-830) allowing fluorescence lifetime measurements and fluorescence lifetime imaging (FLIM), using Becker and Hickl software (SPCImage) for analysis. In FLIM mode the fluorescence was isolated by a suitable narrowband interference filter (400IU25 together with BG3 (Comar)). […] Two photon cross sections were determined using a reference fluorophore as a two photon standard as described by Mathai et al., employing published values of the two-photon cross section for 9-chloroanthracene.
Images of intracellular distribution of E-combretastatins in cell monolayers were obtained using fluorescence lifetime imaging, in which the rastered excitation laser beam dwells on each pixel for a few milliseconds and at each position records a nanosecond fluorescence lifetime decay curve using the time-correlated single photon counting method. […]
Quantification of fluorophore concentration from intensity measurements is often difficult.

[6] = DCM, 20° C., two-photon excitation 620-630 nm, ne = non-exponential
[7] = DMSO, 20° C., two-photon excitation 620-630 nm
[8] = EtOH, 20° C., two-photon excitation 620-630 nm, ne = non-exponential
[9] = Ethylene glycol, 20° C., two-photon excitation 620-630 nm, ne = non-exponential
[10] = Hexane, 20° C., two-photon excitation 620-630 nm
[11] = MeCN, 20° C., two-photon excitation 620-630 nm, ne = non-exponential
[12] = MeOH, 20° C., two-photon excitation 620-630 nm, ne = non-exponential
[13] = HUVEC, 5 μM in medium, 37° C., 60 min

Compound | Two photon absorption cross section σ2 [1] [GM units] | Fluorescence lifetime τ [2, 6] | Fluorescence lifetime τ [2, 7] [ns] | Fluorescence lifetime τ [2, 8] | Fluorescence lifetime τ [2, 9] | Fluorescence lifetime τ [2, 10] [ns] | Fluorescence lifetime τ [2, 11] | Fluorescence lifetime τ [2, 12] | Fluorescence quantum yield φ ([3]; DCM) | also measured
COc1ccc(/C=C/c2cc(OC)c(OC)c(OC)c2)cc1F [E-CA4F, (E)-1-(3′,4′,5′-trimethoxyphenyl)-2-(3″-fluoro-4″-methoxyphenyl)ethene] | 2.75±0.6 | 0.61 ns | 0.81 | 0.48 ns | 0.76 ns | 0.75 | 0.59 ns | 0.44 ns | 0.23 | Fluorescence lifetime τ ([2]; DMSO standard solutions): 810 ps; Fluorescence lifetime τ ([2]; Glycerol, 20° C., two-photon excitation 620-630 nm, ne = non-exponential): 1.07 ns; Fluorescence lifetime ([2]; glycerol): 1070 ps; Fluorescence lifetime ([2]; hexane): 740 ps; Fluorescence lifetime ([2]; methanol): 440 ps; Fluorescence quantum yield φ ([3]; DMSO): 0.29; Fluorescence quantum yield φ ([3]; EtOH): 0.17; Fluorescence quantum yield φ ([3]; Ethylene glycol): 0.29; Fluorescence quantum yield φ ([3]; Glycerol): 0.42; Fluorescence quantum yield φ ([3]; Hexane): 0.31; Fluorescence quantum yield φ ([3]; MeCN): 0.2; Fluorescence quantum yield φ ([3]; MeOH): 0.15; Accumulation relative to the extracellular concentration ([4]; HUVEC endothelial cells): up to 200 times; Intracellular concentration in many parts of the cell [4, 13]: 500 µM; Intracellular concentration in the lipid droplets, peak [4, 13]: over 1 mM; Intracellular concentration as times that added to the surrounding medium ([4]; HUVEC, 5 μM in medium, many parts of the cell): 100 times; Intracellular distribution ([4]; HUVEC, 5 μM, 37° C., 60 min): taken up into the cytoplasmic region of the cell, but excluded from the cell nucleus
COc1cc(C=Cc2ccc(C#N)cc2)cc(OC)c1OC [E-CNCA4, 4-[2-(3,4,5-trimethoxyphenyl)vinyl]benzonitrile] |  |  | 0.71 |  |  |  |  |  |  | Intracellular distribution [5]: accumulates mainly within the cell cytoplasm and is excluded from the cell nucleus
COc1cc(/C=C/c2ccc(N(C)C)cc2)cc(OC)c1OC [E-DMAC, (E)-1-(3′,4′,5′-Trimethoxyphenyl)-2-(4″-dimethylamino-phenyl)ethene] | 5.7±1.2 | ne | 0.36 | ne | ne | 0.41 | ne | ne | 0.11 | 
